Data reported in ChEMBL document CHEMBL4342490, “Discovery of Potent and Selective MTH1 Inhibitors for Oncology: Enabling Rapid Target (In)Validation” (ACS Med Chem Lett, 2020).
Values after ≈ are worked out from the molar mass of the structure shown. Active and inactive are the calls of the source. The rule behind the calls is not given here.

Legend:
U2OS [1] = test: Cytotoxicity against human U2OS cells assessed as reduction in cell viability incubated for 72 hrs by celltiter glo assay
SW480 = test: Cytotoxicity against human SW480 cells assessed as reduction in cell viability incubated for 72 hrs by celltiter glo assay; details: SW480, 72 h
[2] = Cytotoxicity against human MT4 cells assessed as reduction in cell viability incubated for 72 hrs by celltiter glo assay; type: cell-based
[3] = molecular target: Oxidized purine nucleoside triphosphate hydrolase (Homo sapiens) (UniProt P36639); test: Inhibition of MTH1 in human U2OS cells assessed as activation of p53 at 2.25 uM incubated for 4 and 24 hrs by Peggy sue Western blot assay; type: cell-based
U2OS [4] = test: Induction of DNA damage in human U2OS cells assessed as increase in gammaH2AX foci formation at 20 uM incubated for 72 hrs by immunostaining based confocal microscopy; type: functional, cell-based
[5] = Dissociation constant, pKa of the compound; type: physicochemical
[6] = Permeability across apical to basolateral side in human Caco2 cells; details: Caco-2
[7] = Permeability across basolateral to apical side in human Caco2 cells; type: ADME, cell-based; details: Caco-2, read-out: permeability
[8] = Lipophilicity, logD of the compound at pH 7.4; type: physicochemical; details: buffer
[9] = Chemical stability of compound at pH 6 to 9 at 40 degreeC; type: physicochemical; details: buffer
[10] = Glutathione reactivity of compound; type: physicochemical
[11] = Kinetic solubility of compound at pH 2; details: buffer
[12] = Kinetic solubility of compound at pH 7; details: buffer
[13] = Stability of compound in human plasma assessed as half life; type: ADME, cell-free
[14] = Stability of compound in rat plasma assessed as half life; type: ADME, cell-free
[15] = Oral bioavailability in Sprague-Dawley rat at 5 mg/kg; type: ADME, organism-based; details: in vivo
[16] = Clearance in Sprague-Dawley rat at 5 mg/kg, po or 1 mg/kg, iv; type: ADME, organism-based; details: in vivo
[17] = Volume of distribution in Sprague-Dawley rat at 5 mg/kg, po or 1 mg/kg, iv; type: ADME, organism-based; details: in vivo
[18] = Half life in Sprague-Dawley rat at 5 mg/kg, po or 1 mg/kg, iv; type: ADME, organism-based; details: in vivo
[19] = molecular target: Voltage-gated inwardly rectifying potassium channel KCNH2 (Homo sapiens, UniProt Q12809); test: Inhibition of human ERG
Sequence of Voltage-gated inwardly rectifying potassium channel KCNH2 (Q12809 whole entry, canonical isoform): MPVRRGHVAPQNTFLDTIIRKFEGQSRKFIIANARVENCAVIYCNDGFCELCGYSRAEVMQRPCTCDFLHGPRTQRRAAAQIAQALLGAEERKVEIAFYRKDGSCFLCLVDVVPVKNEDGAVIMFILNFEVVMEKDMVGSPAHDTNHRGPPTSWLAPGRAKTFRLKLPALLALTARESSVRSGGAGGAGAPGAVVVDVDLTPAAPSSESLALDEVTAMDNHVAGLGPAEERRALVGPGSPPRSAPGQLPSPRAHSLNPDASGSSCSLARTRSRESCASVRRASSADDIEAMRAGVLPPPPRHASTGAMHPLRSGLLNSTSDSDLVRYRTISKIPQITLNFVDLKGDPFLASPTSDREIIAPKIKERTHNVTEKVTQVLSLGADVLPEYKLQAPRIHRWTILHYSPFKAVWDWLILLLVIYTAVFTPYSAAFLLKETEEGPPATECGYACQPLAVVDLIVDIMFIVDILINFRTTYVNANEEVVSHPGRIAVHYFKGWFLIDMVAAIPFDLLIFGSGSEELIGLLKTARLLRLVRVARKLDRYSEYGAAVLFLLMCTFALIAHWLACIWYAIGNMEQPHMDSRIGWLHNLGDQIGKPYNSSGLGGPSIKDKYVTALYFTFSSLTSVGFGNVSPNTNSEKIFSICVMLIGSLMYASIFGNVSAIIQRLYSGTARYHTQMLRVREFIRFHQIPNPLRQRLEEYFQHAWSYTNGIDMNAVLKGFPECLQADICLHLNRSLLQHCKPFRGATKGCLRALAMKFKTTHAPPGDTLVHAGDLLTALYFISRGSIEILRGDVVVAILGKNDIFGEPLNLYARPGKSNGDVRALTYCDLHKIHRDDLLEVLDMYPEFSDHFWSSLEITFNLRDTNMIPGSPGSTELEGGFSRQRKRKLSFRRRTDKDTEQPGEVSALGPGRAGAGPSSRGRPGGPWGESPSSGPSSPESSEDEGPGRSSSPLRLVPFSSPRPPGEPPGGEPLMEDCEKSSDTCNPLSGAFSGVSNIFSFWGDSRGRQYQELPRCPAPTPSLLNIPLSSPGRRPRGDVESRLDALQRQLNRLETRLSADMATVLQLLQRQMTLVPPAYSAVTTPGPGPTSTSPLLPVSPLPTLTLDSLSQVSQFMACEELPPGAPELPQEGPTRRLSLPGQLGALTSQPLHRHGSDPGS

[20] = molecular target: CYP isoform (not specified) (Homo sapiens, UniProt P04798+P05177+P05181+P08684+P10632+P10635+P11509+P11712+P13584+P20813+P20815+P20853+P24462+P24903+P33260+P33261+P51589+P78329+P98187+Q02928+Q08477+Q16678+Q16696+Q5TCH4+Q6VVX0+Q7Z449+Q8TAV3+Q96SQ9+Q9HB55); test: Inhibition of CYP isoform (unknown origin); type: ADME, protein assay
[21] = molecular target: T1, Nuclear receptor subfamily 1 group I member 2 (Homo sapiens, UniProt O75469); test: Activation of human PXR at 15 uM
T1 sequence (O75469 whole entry): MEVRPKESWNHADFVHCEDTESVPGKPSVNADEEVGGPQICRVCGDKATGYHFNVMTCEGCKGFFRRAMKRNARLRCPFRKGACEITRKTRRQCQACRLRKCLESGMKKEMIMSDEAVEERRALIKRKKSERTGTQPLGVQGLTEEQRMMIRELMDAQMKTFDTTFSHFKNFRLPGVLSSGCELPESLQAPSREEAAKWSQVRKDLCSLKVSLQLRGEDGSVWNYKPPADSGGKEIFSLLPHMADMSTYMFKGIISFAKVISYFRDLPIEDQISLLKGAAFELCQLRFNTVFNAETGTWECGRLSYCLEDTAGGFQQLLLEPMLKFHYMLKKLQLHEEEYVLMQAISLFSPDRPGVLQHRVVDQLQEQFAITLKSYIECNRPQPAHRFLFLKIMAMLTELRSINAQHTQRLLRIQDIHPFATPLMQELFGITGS

Compound `CNc1cc(-c2cccc(Cl)c2Cl)nc(N)n1` has an EC50 (U2OS [1]) of 0.7 to 1.8 µM, an EC50 (SW480) of 3 µM and a CC50 at 72 h [2] of 0.726 µM. For the same compound, the Activity [3] was “Active” and the Activity (U2OS [4]) was “Active”.
With `CNc1cc(N2CCCCC2)nc(N)n1` the Activity (U2OS [4]) was “inactive”.
In the case of `CC(=O)Nc1cc2c(c(-c3cccc(C)c3C)n1)CCCN2`, the EC50 (U2OS [1]) is reported as 8.05 µM, the pKa [5] is reported as 7.5 and the Papp A→B [6] is reported as 35 ×10⁻⁶ cm/s. For the same compound, the Papp B→A [7] was 32 ×10⁻⁶ cm/s, the logD [8] was 2.5 and the Stability [9] was “Stable”. For the same compound, the Activity [10] was “Not Active”, the solubility kinetic [11] was 97 µM (≈ 28.7 µg/mL) and the solubility kinetic [12] was 70 µM (≈ 20.7 µg/mL). The half-life [13] was 4.2 h, the half-life [14] was 7.43 h and the CC50 at 72 h [2] was 19 µM. For the same compound, the Activity (U2OS [4]) was “inactive”.
`CC(=O)Nc1cc2ncccc2c(-c2cccc(C)c2C)n1` gave a pKa [5] of 3.5, a Papp A→B [6] of 37 ×10⁻⁶ cm/s and a Papp B→A [7] of 45 ×10⁻⁶ cm/s.
`Nc1nc2c(-c3cccc(Cl)c3Cl)cccc2[nH]1` gave an EC50 (U2OS [1]) of 14.4 µM.
`Nc1nc(NC2CC2)cc(-c2cccc(Cl)c2Cl)n1` gave an EC50 (U2OS [1]) of 5.6 µM and an EC50 (SW480) of 9.7 µM.
In the case of `C[C@H](Oc1cc(-c2cnn(C3CCNCC3)c2)cnc1N)c1c(Cl)ccc(F)c1Cl`, the EC50 (U2OS [1]) is reported as 6.8 µM.
Work on `Nc1nc2cccc(-c3cccc(Cl)c3Cl)n2n1` yielded an EC50 (U2OS [1]) of 20.3 µM, a Papp A→B [6] of 41 ×10⁻⁶ cm/s and a Papp B→A [7] of 34 ×10⁻⁶ cm/s. The solubility kinetic [11] was 93 µM (≈ 26 µg/mL), the solubility kinetic [12] was 74 µM (≈ 20.7 µg/mL) and the bioavailability [15] was 86%. It also gave a clearance [16] of 12.2 mL/min/kg, a Vd [17] of 2.7 L/kg and a half-life [18] of 3.2 h. The IC50 [19] was greater than 25 µM, the IC50 [20] was greater than 25 µM and the Activity [21] was “Not Active”. The CC50 at 72 h [2] was greater than 50 µM and the Activity (U2OS [4]) was “inactive”.
Work on `COc1ccc2nc3[nH]nc(C)c3c(NCCOCCO)c2c1` yielded an EC50 (U2OS [1]) greater than 20 µM.
Work on `CNc1cc(N(C)[C@@H](C)c2ccccc2)nc(N)n1` yielded an EC50 (U2OS [1]) of 24.9 µM.
For `O=C1c2c(O)ccc(O)c2C(=O)c2c(NCCNCCO)ccc(NCCNCCO)c21`, the inhibition [3] was “Active”.
